Data: patent US12275745B2, “Therapeutic compounds and methods of use” (Genentech, Inc., priority 2021, dated 2025)

Columns and labels:
TEAD4 = TEAD4 (Homo sapiens, UniProt Q15561); assay: TR-FRET (Lipid HTRF) TEAD lipid pocket probe displacement assay, TEAD4; assay type: binding; settings: His-tagged TEAD4, biotinylated lipid pocket probe, 4 hours
TEAD1 = TEAD1 (Homo sapiens, UniProt P28347); assay: TR-FRET (Lipid HTRF) TEAD lipid pocket probe displacement assay, TEAD1; assay type: binding; settings: His-tagged TEAD1, biotinylated lipid pocket probe, 4 hours
TEAD1, sequence (P28347 whole entry, species assumed): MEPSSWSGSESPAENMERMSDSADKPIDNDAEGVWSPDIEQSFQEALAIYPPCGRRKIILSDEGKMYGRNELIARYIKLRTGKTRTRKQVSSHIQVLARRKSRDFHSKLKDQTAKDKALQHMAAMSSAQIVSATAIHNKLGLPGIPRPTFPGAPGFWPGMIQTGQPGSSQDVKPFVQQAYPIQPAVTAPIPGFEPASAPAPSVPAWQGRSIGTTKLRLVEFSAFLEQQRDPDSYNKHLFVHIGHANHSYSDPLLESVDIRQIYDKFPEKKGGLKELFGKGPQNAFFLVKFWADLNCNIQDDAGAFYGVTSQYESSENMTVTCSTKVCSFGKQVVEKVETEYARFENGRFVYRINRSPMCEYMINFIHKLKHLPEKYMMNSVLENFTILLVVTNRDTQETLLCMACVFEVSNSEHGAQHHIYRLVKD

TEAD2 = TEAD2 (Homo sapiens, UniProt Q15562); assay: biochemical;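 also: TR-FRET competition assay with His-tagged TEAD protein and a biotinylated lipid pocket probe, where probe displacement by compound lowers the signal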
TEAD2, sequence (Q15562 whole entry, species assumed): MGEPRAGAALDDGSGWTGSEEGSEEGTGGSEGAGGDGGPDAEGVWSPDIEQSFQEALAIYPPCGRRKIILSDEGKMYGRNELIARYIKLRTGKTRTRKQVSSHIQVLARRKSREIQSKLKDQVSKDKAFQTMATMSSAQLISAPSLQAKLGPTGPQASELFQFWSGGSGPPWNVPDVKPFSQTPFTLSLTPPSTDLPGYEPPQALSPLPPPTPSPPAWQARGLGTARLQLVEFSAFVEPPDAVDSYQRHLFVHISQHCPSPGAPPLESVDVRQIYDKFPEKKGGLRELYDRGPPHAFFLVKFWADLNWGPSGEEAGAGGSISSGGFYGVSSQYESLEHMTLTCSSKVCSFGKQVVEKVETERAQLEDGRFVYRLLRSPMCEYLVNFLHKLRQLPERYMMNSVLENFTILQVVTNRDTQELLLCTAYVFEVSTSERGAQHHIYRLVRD
Protocol: (§1) His-tagged TEAD proteins are pre-incubated with TEAD project compounds for 30 minutes or 4 hours at room temperature. Biotinylated lipid pocket probes are then added to the TEAD/Compound mixture and incubated for 60 minutes at room temperature. The lipid pocket probe competes with the test compound for the TEAD lipid pocket until equilibrium is reached. After 60 minutes, Europium labelled anti-His (Perkin Elmer #AD0110) and XL665 labelled streptavidin (CIS Bio 610SAXAC) are added to the TEAD/test compound/lipid pocket mixture and incubated for 30 minutes or 4 hours. TR-FRET values are then measured using an EnVision multi-label plate reader (Perkin Elmer Cat #2104-001 0A.) If the lipid pocket probe binds to TEAD as expected, a TR-FRET signal results from the proximity of anti-His Eu and XL665. If a TEAD lipid pocket binder such as binds and displaces the lipid pocket probe, the disruption of the TEAD:probe interaction results in a decrease in TR-FRET signal. The potency of compounds as TEAD lipid pocket binders is determined by IC50 value generated using a non-linear 4 parameter curve fit.

TEAD3 = TEAD3 (Homo sapiens, UniProt Q99594); assay: TR-FRET (Lipid HTRF) TEAD lipid pocket probe displacement assay, TEAD3; assay type: binding; settings: His-tagged TEAD3, biotinylated lipid pocket probe, 4 hours
TEAD3, sequence (Q99594 whole entry, species assumed): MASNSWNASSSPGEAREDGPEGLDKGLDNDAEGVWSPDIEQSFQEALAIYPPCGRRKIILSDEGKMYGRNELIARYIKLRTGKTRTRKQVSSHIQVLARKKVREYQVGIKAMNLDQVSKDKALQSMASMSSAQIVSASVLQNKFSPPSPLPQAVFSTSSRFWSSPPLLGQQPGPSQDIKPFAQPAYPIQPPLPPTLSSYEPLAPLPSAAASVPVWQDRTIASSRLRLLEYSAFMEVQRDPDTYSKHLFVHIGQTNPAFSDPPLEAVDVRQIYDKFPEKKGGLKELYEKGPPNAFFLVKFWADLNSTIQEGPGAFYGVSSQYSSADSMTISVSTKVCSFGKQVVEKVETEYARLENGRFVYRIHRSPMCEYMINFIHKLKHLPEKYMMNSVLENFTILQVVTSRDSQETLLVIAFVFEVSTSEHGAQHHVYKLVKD
Protocol: as §1

TEAD4, sequence (Q15561 whole entry, species assumed): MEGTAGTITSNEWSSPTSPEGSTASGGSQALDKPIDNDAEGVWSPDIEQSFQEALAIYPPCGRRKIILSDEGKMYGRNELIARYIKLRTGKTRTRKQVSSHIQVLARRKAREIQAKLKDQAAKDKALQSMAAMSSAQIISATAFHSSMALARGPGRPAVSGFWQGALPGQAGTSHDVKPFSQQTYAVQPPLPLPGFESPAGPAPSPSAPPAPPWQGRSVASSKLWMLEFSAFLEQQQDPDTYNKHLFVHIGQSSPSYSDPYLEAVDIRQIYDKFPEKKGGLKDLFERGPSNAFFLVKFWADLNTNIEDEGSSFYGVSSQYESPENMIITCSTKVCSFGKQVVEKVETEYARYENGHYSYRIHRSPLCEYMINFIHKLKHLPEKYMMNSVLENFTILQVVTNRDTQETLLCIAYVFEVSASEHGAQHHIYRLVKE

SMILES | IC50 (TEAD4) [nM] | IC50 (TEAD1) [nM] | IC50 (TEAD2) [nM] | IC50 (TEAD3) [nM]
C=CC(=O)N[C@H](C)c1cc(-c2ccc(OC(F)(F)F)cc2)c2c(c1CO)CCO2 (single isomer, unassigned) [Compound 17] | 5700 |  |  | 
C=CC(=O)N[C@@H](C)c1cc(-c2ccc(OC(F)(F)F)cc2)c2c(c1CO)CCO2 (single isomer, unassigned) [Compound 18] | 800 |  |  | 
C=CC(=O)NCc1cc(-c2ccc(OC(F)(F)F)cc2)c2ncn(C)c2c1[C@H](O)CO (single isomer, unassigned) [Compound 30] | 53 |  |  | 
C=CC(=O)NCc1cc(-c2ccc(OC(F)(F)F)cc2)c2ncn(C)c2c1[C@@H](O)CO (single isomer, unassigned) [Compound 31] | 55 |  |  | 
C=CC(=O)NCc1cc(-c2ccc(OC(F)(F)F)cc2)c2ncn(C)c2c1[C@H](C)O (single isomer, unassigned) [Compound 33] | 79 | 140 | 7.8 | 260
C=CC(=O)NCc1cc(-c2ccc(OC(F)(F)F)cc2)c2cccnc2c1[C@H](O)CO (single isomer, unassigned) [Compound 45] | 380 | 48 | 18 | 1200
C=CC(=O)NCc1cc(-c2ccc(OC(F)(F)F)cc2)c2cccnc2c1[C@@H](O)CO (single isomer, unassigned) [Compound 46] | 125 | 22 | 6.15 | 79
C=CC(=O)NCc1cc(-c2ccc(OC(F)(F)F)cc2)c2ncccc2c1[C@H](O)CO (single isomer, unassigned) [Compound 47] | 135 | 22 | 11.5 | 175
C=CC(=O)NCc1cc(-c2ccc(OC(F)(F)F)cc2)c2ncccc2c1[C@@H](O)CO (single isomer, unassigned) [Compound 48] | 145 | 22 | 14.5 | 1040
C=CC(=O)N(C)Cc1cc(-c2ccc(OC(F)(F)F)cc2)c2ncccc2c1[C@H](O)CO (single isomer, unassigned) [Compound 51] | 20 | 19 | 12 | 110
C=CC(=O)N(C)Cc1cc(-c2ccc(OC(F)(F)F)cc2)c2ncccc2c1[C@@H](O)CO (single isomer, unassigned) [Compound 52] | 43 | 25 | 46 | 79
C=CC(=O)NCc1nc(-c2ccc(OC(F)(F)F)cc2)c2ncn(C)c2c1[C@H](O)CO (single isomer, unassigned) [Compound 70] | 260 |  |  | 
C=CC(=O)NCc1nc(-c2ccc(OC(F)(F)F)cc2)c2ncn(C)c2c1[C@@H](O)CO (single isomer, unassigned) [Compound 71] | 120 |  |  | 
C=CC(=O)NCc1cc(-c2ccc(OC(F)(F)F)cc2)c2nccnc2c1[C@H](O)CO (single isomer, unassigned) [Compound 79] |  |  | 40 | 1900
C=CC(=O)NCc1cc(-c2ccc(OC(F)(F)F)cc2)c2ncoc2c1[C@H]1CNC(=O)O1 (single isomer, unassigned) [Compound 111] | 290 | 160 | 70 | 
C=CC(=O)NCc1cc(-c2ccc(OC(F)(F)F)cc2)c2ncoc2c1[C@@H]1CNC(=O)O1 (single isomer, unassigned) [Compound 112] | 520 | 2400 | 360 | 
C=CC(=O)N1CC[C@@H](c2nc(-c3ccc(OC(F)(F)F)cc3)c3ncn(C)c3n2)C1 (single isomer, unassigned) [Compound 122] |  | 93 | 66 | 580
C=CC(=O)N1CC[C@H](c2nc(-c3ccc(OC(F)(F)F)cc3)c3ncn(C)c3n2)C1 (single isomer, unassigned) [Compound 123] |  | 17 | 7.8 | 80

SMILES | IC50 (TEAD4) [nM] | IC50 (TEAD1) [nM] | IC50 (TEAD2) [nM] | IC50 (TEAD3) [nM]
C=CC(=O)NCc1cc(-c2ccc(OC(F)(F)F)cc2)c2c(c1CO)CCO2 [Compound 12, N-((4-(Hydroxymethyl)-7-(4-(trifluoromethoxy)phenyl)-2,3-dihydrobenzofuran-5-yl)methyl)acrylamide] | 15.2 |  | 18.3 | 
O=C(CCl)NCc1nc(-c2ccc(OC(F)(F)F)cc2)c2ncsc2n1 [Compound 15, 2-chloro-N-[[7-[4-(trifluoromethoxy)phenyl]thiazolo[5,4-d]pyrimidin-5-yl]methyl]acetamide] | 5 |  | 300 | 70
C=CS(=O)(=O)NCc1cc(-c2ccc(OC(F)(F)F)cc2)c2c(c1CO)CCO2 [Compound 19, N-((4-(Hydroxymethyl)-7-(4-(trifluoromethoxy)phenyl)-2,3-dihydrobenzofuran-5-yl)methyl)ethenesulfonamide] |  | 4 |  | 8
[2H]C([2H])=C([2H])C(=O)NCc1cc(-c2ccc(OC(F)(F)F)cc2)c2c(c1CO)CCO2 [Compound 20, 2,3,3-Trideuterio-N-((4-(hydroxymethyl)-7-(4-(trifluoromethoxy)phenyl)-2,3-dihydrobenzofuran-5-yl)methyl]prop-2-enamide] | 17.5 |  | 23.5 | 
C=CC(=O)NCc1nc(-c2ccc(OC(F)(F)F)cc2)c2ncsc2n1 [Compound 21, N-[[7-[4-(trifluoromethoxy)phenyl]thiazolo[5,4-d]pyrimidin-5-yl]methyl]prop-2-enamide] | 11.9 |  | 190 | 72.7
O=C(CCl)NCc1cc(-c2ccc(OC(F)(F)F)cc2)c2c(c1CO)CCO2 [Compound 25, 2-Chloro-N-((4-(hydroxymethyl)-7-(4-(trifluoromethoxy)phenyl)-2,3-dihydrobenzofuran-5-yl)methyl)acetamide] | 3.7 | 4.4 | 3.9 | 
C=CC(=O)NCc1cc(-c2ccc(OC(F)(F)F)cc2)c2ncn(C)c2c1C#N [Compound 27, N-[[4-cyano-3-methyl-7-[4-(trifluoromethoxy)phenyl]benzimidazol-5-yl]methyl]prop-2-enamide] | 6.7 |  | 15 | 40.5
C=CC(=O)NCc1cc(-c2ccc(OC(F)(F)F)cc2)c2nccnc2c1[C@@H](O)CO [Compound 28, N-[[5-[(1R)-1,2-dihydroxyethyl]-8-[4-(trifluoromethoxy)phenyl]quinoxalin-6-yl]methyl]prop-2-enamide] |  |  | 15.3 | 390
C=CC(=O)N1CC(c2nc(-c3ccc(OC(F)(F)F)cc3)c3ncn(C)c3n2)C1 [Compound 62, 1-[3-[9-methyl-6-[4-(trifluoromethoxy)phenyl]purin-2-yl]azetidin-1-yl]prop-2-en-1-one] | 2 |  | 3.1 | 
C=CC(=O)NCc1cc(-c2ccc(OC(F)(F)F)cc2)c2ncn(C)c2c1C#C[C@H](O)CO [Compound 74, (S)—N-((7-(3,4-dihydroxybut-1-yn-1-yl)-1-methyl-4-(4-(trifluoromethoxy)phenyl)-1H-benzo[d]imidazol-6-yl)methyl)acrylamide] |  | 16 | 17 | 340
C=CC(=O)NCc1cc(-c2ccc(OC(F)(F)F)cc2)c2ncn(C)c2c1C#C[C@@H](O)CO [Compound 75, (R)-N-((7-(3,4-dihydroxybut-1-yn-1-yl)-1-methyl-4-(4-(trifluoromethoxy)phenyl)-1H-benzo[d]imidazol-6-yl)methyl)acrylamide] |  | 9 | 13 | 160
C=CC(=O)NCc1cc(-c2ccc(OC(F)(F)F)cc2)c2ncn(C)c2c1C(N)=O [Compound 76, 3-methyl-5-[(prop-2-enoylamino)methyl]-7-[4-(trifluoromethoxy)phenyl]benzimidazole-4-carboxamide] | 260 |  | 230 | 1300
[2H]C([2H])=C([2H])C(=O)NCc1nc(-c2ccc(OC(F)(F)F)cc2)c2ncsc2n1 [Compound 101, N-((7-(4-(Trifluoromethoxy)phenyl)thiazolo[5,4-d]pyrimidin-5-yl)methyl)acrylamide-2,3,3-d3] | 15.1 |  | 275 | 216
Cn1cnc2c(-c3ccc(OC(F)(F)F)cc3)nc(C3CN(C(=O)C4=CCC4)C3)nc21 [Compound 115, Cyclobut-1-en-1-yl(3-(9-methyl-6-(4-(trifluoromethoxy)phenyl)-9H-purin-2-yl)azetidin-1-yl)methanone] | 2.25 |  | 4.85 | 9
C/C=C/S(=O)(=O)N1CC(c2nc(-c3ccc(OC(F)(F)F)cc3)c3ncn(C)c3n2)C1 [Compound 116, (E)-9-Methyl-2-(1-(prop-1-en-1-ylsulfonyl)azetidin-3-yl)-6-(4-(trifluoromethoxy)phenyl)-9H-purine] |  | 5.3 | 8.7 | 
C=C(F)C(=O)N1CC(c2nc(-c3ccc(OC(F)(F)F)cc3)c3ncn(C)c3n2)C1 [Compound 118, 2-Fluoro-1-(3-(9-methyl-6-(4-(trifluoromethoxy)phenyl)-9H-purin-2-yl)azetidin-1-yl)prop-2-en-1-one] | 6.7 | 9.5 | 72 | 
Cn1cnc2c(-c3ccc(OC(F)(F)F)cc3)nc(C3CN(C(=O)C45CC4C5)C3)nc21 (stereo not shown) [Compound 119, Bicyclo[1.1.0]butan-1-yl(3-(9-methyl-6-(4-(trifluoromethoxy)phenyl)-9H-purin-2-yl)azetidin-1-yl)methanone] | 160 |  | 1300 | 
C/C=C(\C)C(=O)N1CC(c2nc(-c3ccc(OC(F)(F)F)cc3)c3ncn(C)c3n2)C1 [Compound 120, (E)-2-Methyl-1-(3-(9-methyl-6-(4-(trifluoromethoxy)phenyl)-9H-purin-2-yl)azetidin-1-yl)but-2-en-1-one] | 220 |  | 840 | 
